{"source": "paper PMC8745345", "about": "“Hydroxy Pentacyclic Triterpene Acid, Kaempferol, Inhibits the Human 5-Hydroxytryptamine Type 3A Receptor Activity” (International Journal of Molecular Sciences, 2022)", "origin": "cited, not measured here", "test_system": "5-HT3A", "conditions": "cited from earlier work"}
{"smiles": "Cc1nccn1CC1CCc2c(c3ccccc3n2C)C1=O", "note": "(stereo not drawn) [ondansetron]", "values": [{"measurement": "IC50", "setting": "5-HT3 antagonist potency", "value": 4.9, "unit": "nM"}, {"measurement": "mode of antagonism", "value": "competitive antagonist"}, {"measurement": "efficacy of antagonist against I5-HT(100uM) of 5-HT3A", "setting": "serotonin 100 uM", "value": "~100", "unit": "%"}]}
